These results are taken from ChEMBL document CHEMBL2440073, “Antimalarial activity of compounds comprising a primary benzene sulfonamide fragment” (Bioorg Med Chem Lett, 2013).

A short description of data set [1]: Selectivity index, ratio of IC50 for human NFF cells to IC50 for Plasmodium falciparum. The format is toxicity, cell-based. The following applies: NFF cells (versus Plasmodium falciparum), read-out: Ratio IC50.
The subject of data set [2] is NFF. Nature of the data set: Cytotoxicity against human NFF cells after 3 days by SRB assay. The settings on record: 72 h. The format is cell-based. On the technique in general: The SRB assay estimates cell density from bound dye.
The subject of data set [3] is Plasmodium falciparum. The data set can be described thus: Antimalarial activity against ring stage of chloroquine-sensitive Plasmodium falciparum 3D7 infected in erythrocytes assessed as [3H]-hypoxanthine incorporation after 48 hrs by liquid scintillation counting analysis. The format is functional, organism-based.
The test system of data set [4] is Plasmodium falciparum. The data set can be described thus: Antimalarial activity against ring stage of chloroquine-resistant Plasmodium falciparum Dd2 infected in erythrocytes assessed as [3H]-hypoxanthine incorporation after 48 hrs by liquid scintillation counting analysis. The format is functional, organism-based.

For the molecule `CC(=O)OC[C@H]1O[C@@H](SCc2nnn(-c3ccc(S(N)(=O)=O)cc3)c2I)[C@H](OC(C)=O)[C@@H](OC(C)=O)[C@@H]1OC(C)=O`, the selectivity ratio in data set [1] is at least 40. Also, the IC50 (commonly the midpoint of a concentration-inhibition curve) in data set [2] amounted to 51.1 µM; in data set [3], 0.9 µM; in data set [4] it was 1.3 µM.

Consider `CC(=O)OC[C@H]1O[C@@H](SCc2nnn(-c3ccc(S(N)(=O)=O)cc3)c2I)[C@H](OC(C)=O)[C@@H](OC(C)=O)[C@H]1OC(C)=O`, for which the results for the concentration for half-maximal inhibition (IC50) in data set [2], in data set [3] and in data set [4] were above 100 µM, 1.4 µM and 4.1 µM, respectively.

In the case of `CC(=O)OC[C@H]1O[C@@H](S(=O)(=O)Cc2nnn(-c3ccc(S(N)(=O)=O)cc3)c2I)[C@H](OC(C)=O)[C@@H](OC(C)=O)[C@@H]1OC(C)=O`, the figures for the IC50 in data set [2], in data set [3] and in data set [4] were above 100 µM, 5.3 µM and 7.8 µM, respectively.

Consider `CC(=O)OC[C@H]1O[C@@H](S(=O)(=O)Cc2nnn(-c3ccc(S(N)(=O)=O)cc3)c2I)[C@H](OC(C)=O)[C@@H](OC(C)=O)[C@@H]1O[C@H]1O[C@H](COC(C)=O)[C@@H](OC(C)=O)[C@H](OC(C)=O)[C@H]1OC(C)=O`, for which the IC50 was above 100 µM in data set [2], 2.3 µM in data set [3] and 2.4 µM in data set [4].

With `CC(=O)OC[C@H]1O[C@@H](S(=O)(=O)Cc2cn(-c3ccc(S(N)(=O)=O)cc3)nn2)[C@H](OC(C)=O)[C@@H](OC(C)=O)[C@@H]1O[C@H]1O[C@H](COC(C)=O)[C@@H](OC(C)=O)[C@H](OC(C)=O)[C@H]1OC(C)=O`, the IC50 in data set [3] is 20.7 µM; in data set [4], 14.7 µM.

In the case of `NS(=O)(=O)c1ccc(-n2nnc(CS[C@@H]3O[C@H](CO)[C@@H](O)[C@H](O)[C@H]3O)c2I)cc1`, in data set [1], the selectivity ratio was at least 40. Moreover, the half-inhibitory concentration (IC50) in data set [2] is above 100 µM; in data set [3], 1 µM; in data set [4] it was 1.9 µM.

With `NS(=O)(=O)c1ccc(-n2nnc(CS(=O)(=O)[C@@H]3O[C@H](CO)[C@@H](O)[C@H](O)[C@H]3O)c2I)cc1`, the IC50 was 28.6 µM in data set [3] and above 50 µM in data set [4].

In the case of `CC(=O)OC[C@H]1O[C@@H](S(=O)(=O)Cc2nnn(-c3ccccc3)c2I)[C@H](OC(C)=O)[C@@H](OC(C)=O)[C@@H]1OC(C)=O`, the values for the concentration for half-maximal inhibition (IC50) in data set [3] and in data set [4] were 4.7 µM and 3.4 µM, respectively.

On to `CC(=O)OC[C@H]1O[C@@H](OCc2cn(-c3ccccc3)nn2)[C@H](OC(C)=O)[C@@H](OC(C)=O)[C@@H]1OC(C)=O`, for which the 50% inhibitory concentration (IC50) in data set [3] and in data set [4] was above 50 µM throughout.

As for `O=S(=O)(Cc1nnn(-c2ccccc2)c1I)[C@@H]1O[C@H](CO)[C@@H](O)[C@H](O)[C@H]1O`, the IC50 in data set [3] was found to be 3.8 µM; in data set [4], 3.4 µM.

Regarding `CC(=O)OC[C@H]1O[C@@H](SCc2cn(-c3ccccc3)nn2)[C@H](OC(C)=O)[C@@H](OC(C)=O)[C@@H]1OC(C)=O`, the half-maximal inhibitory concentration (IC50) in data set [3] and in data set [4] was above 50 µM throughout.

For `OC[C@H]1O[C@@H](SCc2cn(-c3ccccc3)nn2)[C@H](O)[C@@H](O)[C@@H]1O`, the concentration for half-maximal inhibition (IC50) in data set [3] and in data set [4] was above 50 µM throughout.

Take `CC(=O)OC[C@H]1O[C@@H](S(=O)(=O)Cc2cn(-c3ccccc3)nn2)[C@H](OC(C)=O)[C@@H](OC(C)=O)[C@@H]1OC(C)=O`: the IC50 in data set [3] and in data set [4] was above 50 µM throughout.

For the molecule `O=S(=O)(Cc1cn(-c2ccccc2)nn1)[C@@H]1O[C@H](CO)[C@@H](O)[C@H](O)[C@H]1O`, the 50% inhibitory concentration (IC50) in data set [3] and in data set [4] was above 50 µM throughout.

With `COC(=O)[C@H]1O[C@@H](SCc2nnn(-c3ccc(S(N)(=O)=O)cc3)c2I)[C@H](OC(C)=O)[C@@H](OC(C)=O)[C@@H]1OC(C)=O`, the values for the IC50 in data set [2], in data set [3] and in data set [4] were above 100 µM, 2.1 µM and 6 µM, respectively.

Consider `CC(=O)OC[C@H]1O[C@@H](OCc2nnn(-c3ccc(S(N)(=O)=O)cc3)c2I)[C@H](OC(C)=O)[C@@H](OC(C)=O)[C@@H]1OC(C)=O`, for which the concentration for half-maximal inhibition (IC50) was above 100 µM in data set [2], 2.8 µM in data set [3] and 2.6 µM in data set [4].

As to `CC(=O)OC[C@H]1O[C@@H](SCc2nnn(-c3ccccc3)c2I)[C@H](OC(C)=O)[C@@H](OC(C)=O)[C@@H]1OC(C)=O`, the IC50 in data set [3] was determined as 4.6 µM; in data set [4], 4.8 µM.

For `OC[C@H]1O[C@@H](SCc2nnn(-c3ccccc3)c2I)[C@H](O)[C@@H](O)[C@@H]1O`, the concentration for half-maximal inhibition (IC50) is 4.9 µM in data set [3] and 4.4 µM in data set [4].

On to `CC(=O)OC[C@H]1O[C@@H](OCc2nnn(-c3ccccc3)c2I)[C@H](OC(C)=O)[C@@H](OC(C)=O)[C@@H]1OC(C)=O`, for which the half-maximal inhibitory concentration (IC50) in data set [3] came out at 10.6 µM; in data set [4] it was 9.4 µM.

Take `CC(=O)OC[C@H]1O[C@@H](OCc2cn(-c3ccc(S(N)(=O)=O)cc3)nn2)[C@H](OC(C)=O)[C@@H](OC(C)=O)[C@@H]1OC(C)=O`: the values for the IC50 in data set [3] and in data set [4] were 9.7 µM and 11.7 µM, respectively.

Consider `CC(=O)OC[C@H]1O[C@@H](S(=O)(=O)Cc2cn(-c3ccc(S(N)(=O)=O)cc3)nn2)[C@H](OC(C)=O)[C@@H](OC(C)=O)[C@@H]1OC(C)=O`, for which the half-inhibitory concentration (IC50) in data set [3] and in data set [4] was above 50 µM each time.

Regarding `NS(=O)(=O)c1ccc(-n2cc(CS[C@@H]3O[C@H](CO)[C@@H](O)[C@H](O)[C@H]3O)nn2)cc1`, the 50% inhibitory concentration (IC50) in data set [3] and in data set [4] was above 50 µM throughout.

`NS(=O)(=O)c1ccc(-n2cc(CS(=O)(=O)[C@@H]3O[C@H](CO)[C@@H](O)[C@H](O)[C@H]3O)nn2)cc1`: the IC50 in data set [3] and in data set [4] was above 50 µM each time.

As for `CC(=O)OC[C@H]1O[C@@H](SCc2cn(-c3ccc(S(N)(=O)=O)cc3)nn2)[C@H](OC(C)=O)[C@@H](OC(C)=O)[C@@H]1OC(C)=O`, the 50% inhibitory concentration (IC50) was 31 µM in data set [3] and above 25 µM in data set [4].

Consider `CCN(CC)CCCC(C)Nc1ccnc2cc(Cl)ccc12` (stereo not drawn) [CHLOROQUINE], for which the IC50 in data set [2] is above 1000 µM.
